Ki data for 30 molecules are collected here from patent US20230174484A1, “ANTAGONISTS OF GPR39 PROTEIN” (Oregon Health & Science University, priority 2020, published 2023).

Where a name gives a salt, the structure may show the parent alone.

The target in this test is T1, human GPR39 receptor (Homo sapiens, UniProt O43194).
T1 construct: PC3 Cells, Expressing the Endogenous Human GPR39 Receptor; endogenous in cells; host or cells: PC3 (human prostate adenocarcinoma) cells
T1 sequence (O43194 1-453): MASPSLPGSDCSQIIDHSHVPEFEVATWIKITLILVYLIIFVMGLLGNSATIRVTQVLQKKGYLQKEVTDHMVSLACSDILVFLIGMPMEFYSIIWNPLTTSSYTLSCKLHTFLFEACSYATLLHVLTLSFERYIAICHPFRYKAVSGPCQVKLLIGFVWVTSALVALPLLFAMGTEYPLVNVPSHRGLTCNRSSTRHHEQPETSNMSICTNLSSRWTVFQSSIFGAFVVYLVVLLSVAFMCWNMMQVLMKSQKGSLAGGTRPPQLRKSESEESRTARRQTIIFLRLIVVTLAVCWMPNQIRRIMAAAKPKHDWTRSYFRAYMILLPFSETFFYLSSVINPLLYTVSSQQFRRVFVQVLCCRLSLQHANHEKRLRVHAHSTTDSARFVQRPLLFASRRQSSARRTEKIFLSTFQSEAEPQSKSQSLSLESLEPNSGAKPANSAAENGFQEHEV
As to the kind of experiment: Measurement of intracellular calcium response in PC3 cells (FLIPR), antagonism of the C3 agonist response. The class given is cell-based. As to conditions: functional pKi (modified Cheng-Prusoff), inhibition of the C3 (TC-G 1008) response at EC90, 30 μM ZnCl2, read-out: fpKi activity. The essentials:
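Potency was reported as fpKi, converted by modified Cheng-Prusoff from four-parameter IC50 fits against an EC90 C3 agonist challenge. Calcium-6 FLIPR readings used PC3 cells naturally expressing human GPR39, in pH 7.4 HEPES buffer containing 30 μM final ZnCl2. Score bands: +/± <5.2, + 5.2–5.9, ++ 6.0–6.5, +++ 6.6–7.2, ++++ ≥7.3.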
For `O=C(Nc1ccc(C(=O)N2CCS(=O)(=O)CC2)c(N2CCC(C(F)(F)F)C2)c1)C1CC1` (single isomer, unassigned) [Example 183a, N-[4-(1,1-dioxo-1,4-thiazinane-4-carbonyl)-3-[3r or 3S-(trifluoromethyl)pyrrolidin-1-yl]phenyl]cyclopropanecarboxamide], the Ki is at most 0.0501 µM.
Consider `CCCN1CCN(C(=O)c2ccc(NC(=O)C3CC3)cc2N2CC3CC3C2)CC1` (stereo not drawn) [Example 12, N-(3-(3-azabicyclo[3.1.0]hexan-3-yl)-4-(4-propylpiperazine-1-carbonyl)phenyl)cyclopropanecarboxamide], for which the Ki lay within 0.316 to 1 µM.
With `CC1CN(C)CCN1C(=O)c1ccc(NC(=O)C2CC2)cc1N1CCCCCC1` (stereo not drawn) [Example 37, N-[3-(azepan-1-yl)-4-(2,4-dimethylpiperazine-1-carbonyl)phenyl]cyclopropanecarboxamide], the Ki was in the range of 0.316 to 1 µM.
On to `CCCC1CCN(C(=O)c2ccc(NC(=O)C3CC3)cc2N2CCCCCC2)CC1` [Example 47, N-(3-(azepan-1-yl)-4-(4-propylpiperidine-1-carbonyl)phenyl)cyclopropanecarboxamide], for which the Ki lay in the range of 0.0631 to 0.251 µM.
`CN1CCN(C(=O)c2ccc(NC(=O)C3CC3)cc2N2CCOCC2)C(c2ccccc2)C1` (stereo not drawn) [Example 200, N-[4-(4-methyl-2-phenylpiperazine-1-carbonyl)-3-morpholin-4-ylphenyl]cyclopropanecarboxamide]: the Ki lay within 1.26 to 6.31 µM.
For the molecule `O=C(Nc1ccc(C(=O)N2CCN(c3ccncc3)CC2)c(N2CCCCCC2)c1)C1CC1` [Example 57, N-[3-(azepan-1-yl)-4-(4-pyridin-4-ylpiperazine-1-carbonyl)phenyl]cyclopropanecarboxamide], the Ki lay in the range of 1.26 to 6.31 µM.
For `CN1CCN(C(=O)c2ccc(NC(=O)C3CC3)cc2N2CCC(C(F)(F)F)C2)C(c2ccccc2)C1` (single isomer, unassigned) [Example 199d, (2S, 3R) or (2R, 3S) or (2R, 3R) or (2S, 3S) N-[4-(4-methyl-2-phenylpiperazine-1-carbonyl)-3-[3-(trifluoromethyl)pyrrolidin-1-yl]phenyl]cyclopropanecarboxamide], the Ki lay within 0.316 to 1 µM.
Turning to `CC1CC(C)CN(c2cc(NC(=O)C3CC3)ccc2C(=O)N2CCN(C)CC2c2ccccc2)C1` (single isomer, unassigned) [Example 68f, Syn 2R or 2S N-[3-[3,5-dimethylpiperidin-1-yl]-4-(4-methyl-2-phenylpiperazine-1-carbonyl)phenyl]cyclopropanecarboxamide hydrochloride], the Ki was at most 0.0501 µM.
As for `O=C(Nc1ccc(C(=O)N2CCS(=O)(=O)CC2)c(N2CCCC(F)(F)C2)c1)C1CC1` [Example 191, N-[3-(3,3-difluoropiperidin-1-yl)-4-(1,1-dioxo-1,4-thiazinane-4-carbonyl)phenyl]cyclopropanecarboxamide], the figure is 1.26 to 6.31 µM.
With `CC1CC(C)CN(c2cc(NC(=O)C3CC3)ccc2C(=O)N2CCN(C)CC2c2ccccc2)C1` (single isomer, unassigned) [Example 68e, Anti N-[3-[3,5-dimethylpiperidin-1-yl]-4-(4-methyl-2-phenylpiperazine-1-carbonyl)phenyl]cyclopropanecarboxamide], the Ki was in the range of 0.0631 to 0.251 µM.
Regarding `CC1CC(C)CN(c2cc(NC(=O)C3CC3)ccc2C(=O)N2CCN(C)CC2c2ccccc2)C1` (racemic) [Example 68c, Syn N-[3-[3,5-dimethylpiperidin-1-yl]-4-(4-methyl-2-phenylpiperazine-1-carbonyl)phenyl]cyclopropanecarboxamide], the Ki was at most 0.0501 µM.
As to `CCCN1CCN(C(=O)c2ccc(NC(=O)C3CC3)cc2N2CCC(C)(C)CC2)CC1` [Example 17, N-(3-(4,4-dimethylpiperidin-1-yl)-4-(4-propylpiperazine-1-carbonyl)phenyl)cyclopropanecarboxamide], the Ki lay within 0.0631 to 0.251 µM.
As to `O=C(Nc1ccc(C(=O)N2CCS(=O)(=O)CC2)c(N2CCC(F)(F)CC2)c1)C1CC1` [Example 196, N-[3-(4,4-difluoropiperidin-1-yl)-4-(1,1-dioxo-1,4-thiazinane-4-carbonyl)phenyl]cyclopropanecarboxamide], the Ki is 1.26 to 6.31 µM.
As for `CN1CCN(C(=O)c2ccc(-c3nnc(C4CC4)[nH]3)cc2N2CCCC2)C(c2ccccc2)C1` (racemic) [Example 151c, [4-(5-cyclopropyl-4H-1,2,4-triazol-3-yl)-2-pyrrolidin-1-ylphenyl]-(4-methyl-2phenylpiperazin-1-yl)methanone], the figure is 0.0631 to 0.251 µM.
As to `O=C(Nc1ccc(C(=O)N2CCS(=O)(=O)CC2)c(N2CCC3(CCC3)C2)c1)C1CC1` [Example 65, N-[3-(6-azaspiro[3.4]octan-6-yl)-4-(1,1-dioxo-1,4-thiazinane-4-carbonyl)phenyl]cyclopropanecarboxamide], the Ki was at most 0.0501 µM.
Take `CN1CCN(C(=O)c2ccc(NC(=O)C3CC3)cc2N2CCC(F)(F)C2)C(c2ccccc2)C1` (single isomer, unassigned) [Example 202a, N-[3-(3,3-difluoropyrrolidin-1-yl)-4-(2R or 2S)-4-methyl-2-phenylpiperazine-1-carbonyl)phenyl]cyclopropanecarboxamide]: the Ki was 1.26 to 6.31 µM.
For the molecule `CCCN1CCN(C(=O)c2ccc(NC(=O)C3CC3)cc2-c2ccccc2)CC1` [Example 10, N-(6-(4-propylpiperazine-1-carbonyl)-[1,1′-biphenyl]-3-yl)cyclopropanecarboxamide], the Ki was in the range of 1.26 to 6.31 µM.
Take `CCCN1CCN(C(=O)c2ccc(NC(=O)c3ccccc3)cc2N2CCCCCC2)CC1` [Example 91, N-(3-(azepan-1-yl)-4-(4-propylpiperazine-1-carbonyl)phenyl)benzamide]: the Ki is 1.26 to 6.31 µM.
As to `O=C(Nc1ccc(C(=O)N2CCN(c3ccccn3)CC2)c(N2CCCCCC2)c1)C1CC1` [Example 46, N-(3-(azepan-1-yl)-4-(4-(pyridin-2-yl)piperazine-1-carbonyl)phenyl) Cyclopropanecarboxamide], the Ki lay in the range of 0.316 to 1 µM.
On to `CC(C)C1CN(C)CCN1C(=O)c1ccc(NC(=O)C2CC2)cc1N1CCCCCC1` (stereo not drawn) [Example 79, N-[3-(azepan-1-yl)-4-(4-methyl-2-propan-2-ylpiperazine-1-carbonyl)phenyl]Cyclopropanecarboxamide], for which the Ki lay within 1.26 to 6.31 µM.
As to `CN1CCn2c(cnc2-c2ccc(NC(=O)C3CC3)cc2N2CCCCCC2)C1` [Example 102, N-[3-(azepan-1-yl)-4-{7-methyl-5H,6H,7H,8H-imidazo[1,5-a]pyrazin-3-yl}phenyl]cyclopropanecarboxamide], the Ki lay in the range of 0.0631 to 0.251 µM.
Turning to `O=C(Nc1ccc(C(=O)N2CCN(C3CCCC3)CC2)c(N2CCCCCC2)c1)C1CC1` [Example 53, N-[3-(azepan-1-yl)-4-(4-cyclopentylpiperazine-1-carbonyl)phenyl]cyclopropanecarboxamide], the Ki is 0.316 to 1 µM.
Regarding `O=C(Nc1ccc(C(=O)N2CCC3(CC2)COC3)c(N2CCCC2)c1)C1CC1` [Example 219, N-[4-(2-oxa-7-azaspiro[3.5]nonane-7-carbonyl)-3-pyrrolidin-1-ylphenyl]cyclopropanecarboxamide], the Ki lay in the range of 0.0631 to 0.251 µM.
As for `O=C(Nc1ccc(C(=O)N2CCC(C(F)(F)F)CC2)c(N2CCCCCC2)c1)C1CC1` [Example 38, N-(3-(azepan-1-yl)-4-(4-(trifluoromethyl)piperidine-1-carbonyl)phenyl) cyclopropanecarboxamide], the figure is 0.0631 to 0.251 µM; as for `O=C(Nc1ccc(C(=O)N2CCc3ccccc3C2)c(N2CCCCCC2)c1)C1CC1` [Example 21, N-(3-(azepan-1-yl)-4-(1,2,3,4-tetrahydroisoquinoline-2-carbonyl)phenyl) cyclopropanecarboxamide], 0.316 to 1 µM.
`Cc1nnc(-c2ccc(C(=O)N3CCC(C(F)(F)F)CC3)c(N3CCCC3)c2)[nH]1` [Example 153, [4-(5-methyl-4H-1,2,4-triazol-3-yl)-2-pyrrolidin-1-ylphenyl]-[4-(trifluoromethyl)piperidin-1-yl]methanone]: the Ki was in the range of 0.0631 to 0.251 µM.
For `CN1CCN(C(=O)c2ccc(NC(=O)C3CC3)cc2N2CCCCCC2)C(CO)C1` (stereo not drawn) [Example 77, N-[3-(azepan-1-yl)-4-[2-(hydroxymethyl)-4-methylpiperazine-1-carbonyl]phenyl]cyclopropanecarboxamide], the Ki was in the range of 1.26 to 6.31 µM.
`CN1CCN(C(=O)c2ccc(NC(=O)C3CC3)cc2N2CCCC2)C(c2cccnc2)C1` (racemic) [Example 173, N-[4-(4-methyl-2-pyridin-3-ylpiperazine-1-carbonyl)-3-pyrrolidin-1-ylphenyl]cyclopropanecarboxamide]: the Ki lay in the range of 0.316 to 1 µM.
Take `CN1CCN(C(=O)c2ccc(NC(=O)C3CC3)cc2N2CCCC2)C(c2cccs2)C1` (single isomer, unassigned) [Example 86a, N-[4-(4-methyl-2-thiophen-2-ylpiperazine-1-carbonyl)-3-pyrrolidin-1-ylphenyl]cyclopropanecarboxamide]: the Ki fell in the range of 1.26 to 6.31 µM.
With `O=C(Nc1ccc(C(=O)N2CCn3c(nnc3C(F)(F)F)C2)c(N2CCCCCC2)c1)C1CC1` [Example 41], the Ki is 1.26 to 6.31 µM.
